Experimental data from patent publication US20150259331A1, “PROTOZOAN PARASITE GROWTH INHIBITORS” (Northeastern University, priority 2014, published 2015).
Like-named read-outs stand apart in the source and are kept apart here.

What was measured:
[1] = system: T. brucei brucei Lister 427; assay: Trypanosome replication assay; format: cell-based, Trypanosoma brucei brucei; details: Trypanosoma brucei, 48 h, 48 h, values ±7%
[2] = system: L. major amastigote; assay: L. major amastigote assay; format: cell-based; details: Leishmania major
[3] = system: L. major promastigote; assay: L. major promastigote assay; format: cell-based; details: Leishmania major
[4] = system: T. cruzi; assay: T. cruzi growth inhibition; format: cell-based, Trypanosoma cruzi; details: Trypanosoma cruzi
[5] = system: HepG2 cells; assay: HepG2 cell toxicity (MTT) assay; format: cell-based; details: Table 13; read-out: HepG2 TC50
[6] = system: P. fal; assay: P. fal assay of Table 13 (strain not given); format: cell-based, P. falciparum; details: Plasmodium falciparum
[7] = concentration giving 50% inhibition of growth of T brucei brucei Lister 427 cells, read-out: Tbb EC50
[8] = read-out: Tbb EC50, concentration giving 50% inhibition of growth of T brucei brucei Lister 427 cells

Compound | EC50 [1, 7] [nM] | EC50 [2] [nM] | EC50 [3] [nM] | EC50 [4] [µM] | EC50 [6] [nM] | CC50 [5] [µM] | EC50 [1, 8] [nM]
Fc1cccc(COc2ccc(Nc3ccnc4cc(-c5cccc(N6CCOCC6)c5)ccc34)cc2Cl)c1 [NEU-942, N-(3-Chloro-4-((3-fluorobenzyl)oxy)phenyl)-7-(3-morpholinophenyl)quinolin-4-amine] | 1200 | > 3000 | 1400 | 2.7 | 61 | > 5 | –
CN1CCCN(S(=O)(=O)c2ccc(-c3ccc4c(Nc5ccc(OCc6cccc(F)c6)c(Cl)c5)ccnc4c3)cc2)CC1 [NEU-943, N-(3-Chloro-4-((3-fluorobenzyl)oxy)phenyl)-7-(4-((4-methyl-1,4-diazepan-1-yl)sulfonyl)phenyl)quinolin-4-amine] | 87 | 880 | 400 | 0.73 | 94 | 5 | –
CN1CCCN(S(=O)(=O)c2ccc(-c3ccc4ccnc(Nc5ccc(OCc6cccc(F)c6)c(Cl)c5)c4c3)cc2)CC1 [NEU-962, N-(3-Chloro-4-((3-fluorobenzyl)oxy)phenyl)-7-(4-((4-methyl-1,4-diazepan-1-yl)sulfonyl)phenyl)isoquinolin-1-amine] | 730 | 2200 | 1300 | 4.7 | 86 | – | –
CN1CCCN(S(=O)(=O)c2ccc(-c3ccc4c(Nc5ccc(OCc6cccc(F)c6)c(Cl)c5)nccc4c3)cc2)CC1 [NEU-963, N-(3-Chloro-4-((3-fluorobenzyl)oxy)phenyl)-6-(4-((4-methyl-1,4-diazepan-1-yl)sulfonyl)phenyl)isoquinolin-1-amine] | 390 | 4400 | 440 | 33 | 410 | – | –
CN1CCN(S(=O)(=O)c2ccc(-c3ccc4nncc(Nc5ccc(OCc6cccc(F)c6)c(Cl)c5)c4c3)cc2)CC1 [NEU-1003, N-(3-Chloro-4-((3-fluorobenzyl)oxy)phenyl)-6-(4-((4-methylpiperazin-1-yl)sulfonyl)phenyl)cinnolin-4-amine] | 980 | 1900 | > 15000 | > 50 | 130 | – | –
Fc1cccc(COc2ccc(Nc3cnnc4ccc(-c5cccc(N6CCOCC6)c5)cc34)cc2Cl)c1 [NEU-1012, N-(3-Chloro-4-((3-fluorobenzyl)oxy)phenyl)-6-(3-morpholinophenyl)cinnolin-4-amine] | 1100 | > 15000 | > 15000 | > 50 | 540 | > 15 | –
CN1CCCN(S(=O)(=O)c2ccc(-c3ccc4nncc(Nc5ccc(OCc6cccc(F)c6)c(Cl)c5)c4c3)cc2)CC1 [NEU-1013, N-(3-Chloro-4-((3-fluorobenzyl)oxy)phenyl)-6-(4-((4-methyl-1,4-diazepan-1-yl)sulfonyl)phenyl)cinnolin-4-amine] | 580 | 1060 | 4100 | 2.2 | 27 | 7.3 | –
Fc1cccc(COc2ccc(Nc3cnnc4cc(-c5cccc(N6CCOCC6)c5)ccc34)cc2Cl)c1 [NEU-1014, N-(3-Chloro-4-((3-fluorobenzyl)oxy)phenyl)-7-(3-morpholinophenyl)cinnolin-4-amine] | 890 | > 15000 | 9800 | 45 | 200 | 11 | –
Fc1cccc(COc2ccc(Nc3nncc4ccc(-c5cccc(N6CCOCC6)c5)cc34)cc2Cl)c1 [NEU-1035, N-(3-Chloro-4-((3-fluorobenzyl)oxy)phenyl)-7-(3-morpholinophenyl)phthalazin-1-amine] | 290 | 1700 | > 15000 | > 50 | 110 | – | –
O=S(=O)(c1ccc(-c2ccc3c(Nc4ccc(OCc5ccccc5)c(Cl)c4)nncc3c2)cc1)N1CCOCC1 [NEU-1039, N-(4-(Benzyloxy)-3-chlorophenyl)-6-(4-(morpholinosulfonyl)phenyl)phthalazin-1-amine] | 990 | > 15000 | > 15000 | > 50 | 110 | > 15 | –
CN1CCN(S(=O)(=O)c2ccc(-c3ccc4c(Nc5ccc(OCc6cccc(F)c6)c(Cl)c5)nncc4c3)cc2)CC1 [NEU-1041, N-(3-Chloro-4-((3-fluorobenzyl)oxy)phenyl)-6-(4-((4-methylpiperazin-1-yl)sulfonyl)phenyl)phthalazin-1-amine, Formic Acid] | – | > 15000 | 1300 | 18 | 45 | > 15 | 1200
CN1CCCN(S(=O)(=O)c2ccc(-c3ccc4c(Nc5ccc(OCc6cccc(F)c6)c(Cl)c5)nncc4c3)cc2)CC1 [NEU-1042, N-(3-Chloro-4-((3-fluorobenzyl)oxy)phenyl)-6-(4-((4-methyl-1,4-diazepan-1-yl)sulfonyl)phenyl)phthalazin-1-amine, Formic Acid] | – | 1100 | 410 | 1.3 | 29 | 3.4 | 510
CN1CCN(S(=O)(=O)c2ccc(-c3ccc4cnnc(Nc5ccc(OCc6cccc(F)c6)c(Cl)c5)c4c3)cc2)CC1 [NEU-1043, N-(3-Chloro-4-((3-fluorobenzyl)oxy)phenyl)-7-(4-((4-methylpiperazin-1-yl)sulfonyl)phenyl)phthalazin-1-amine, Formic Acid] | – | > 4000 | > 3200 | > 50 | 130 | > 5 | 2000
CN1CCCN(S(=O)(=O)c2ccc(-c3ccc4cnnc(Nc5ccc(OCc6cccc(F)c6)c(Cl)c5)c4c3)cc2)CC1 [NEU-1044, N-(3-Chloro-4-((3-fluorobenzyl)oxy)phenyl)-7-(4-((4-methyl-1,4-diazepan-1-yl)sulfonyl)phenyl)phthalazin-1-amine, Formic Acid] | – | 5600 | > 15000 | 17 | 94 | 14 | 620

Further lines, with some results ahead:

EC50 [1, 7] [nM] | EC50 [2] [nM] | EC50 [3] [nM] | EC50 [4] [µM] | EC50 [6] [nM] | Compound | CC50 [5] [µM] | EC50 [1, 8] [nM]
91 | > 3000 | > 15000 | > 50 | 3400 | O=S(=O)(c1ccc(-c2ccc3c(Nc4ccc(OCc5ccccc5)c(Cl)c4)nccc3c2)cc1)N1CCOCC1 [NEU-948, N-(4-(Benzyloxy)-3-chlorophenyl)-6-(4-(morpholinosulfonyl)phenyl)isoquinolin-1-amine] | > 5 | –
140 | 2300 | 400 | 0.93 | 86 | CN1CCCN(S(=O)(=O)c2ccc(-c3ccc4nccc(Nc5ccc(OCc6cccc(F)c6)c(Cl)c5)c4c3)cc2)CC1 [NEU-958, N-(3-Chloro-4-((3-fluorobenzyl)oxy)phenyl)-6-(4-((4-methyl-1,4-diazepan-1-yl)sulfonyl)phenyl)quinolin-4-amine] | 4.3 | –
1000 | 4000 | 900 | 6.6 | 35 | Fc1cccc(COc2ccc(Nc3ccnc4ccc(-c5cccc(N6CCOCC6)c5)cc34)cc2Cl)c1 [NEU-959, N-(3-Chloro-4-((3-fluorobenzyl)oxy)phenyl)-6-(3-morpholinophenyl)quinolin-4-amine] | 10 | –
460 | 2000 | 600 | 5.3 | 16000 | CN1CCN(S(=O)(=O)c2ccc(-c3ccc4nccc(Nc5ccc(OCc6cccc(F)c6)c(Cl)c5)c4c3)cc2)CC1 [NEU-960, N-(3-Chloro-4-((3-fluorobenzyl)oxy)phenyl)-6-(4-((4-methylpiperazin-1-yl)sulfonyl)phenyl)quinolin-4-amine] | 6.4 | –
1200 | > 15000 | > 15000 | > 50 | 820 | O=S(=O)(c1ccc(-c2ccc3nncc(Nc4ccc(OCc5ccccc5)c(Cl)c4)c3c2)cc1)N1CCOCC1 [NEU-1002, N-(4-(Benzyloxy)-3-chlorophenyl)-6-(4-(morpholinosulfonyl)phenyl)cinnolin-4-amine] | > 15 | –
1200 | > 15000 | > 15000 | 15 | 150 | O=S(=O)(c1ccc(-c2ccc3c(Nc4ccc(OCc5ccccc5)c(Cl)c4)cnnc3c2)cc1)N1CCOCC1 [NEU-1015, N-(4-(Benzyloxy)-3-chlorophenyl)-7-(4-(morpholinosulfonyl)phenyl)cinnolin-4-amine] | > 11 | –
1000 | 2000 | 5700 | 3.1 | 14 | CN1CCN(S(=O)(=O)c2ccc(-c3ccc4c(Nc5ccc(OCc6cccc(F)c6)c(Cl)c5)cnnc4c3)cc2)CC1 [NEU-1016, N-(3-Chloro-4-((3-fluorobenzyl)oxy)phenyl)-7-(4-((4-methylpiperazin-1-yl)sulfonyl)phenyl)cinnolin-4-amine] | – | –
860 | > 4000 | > 3400 | > 50 | 540 | O=S(=O)(c1ccc(-c2ccc3cnnc(Nc4ccc(OCc5ccccc5)c(Cl)c4)c3c2)cc1)N1CCOCC1 [NEU-1036, N-(4-(Benzyloxy)-3-chlorophenyl)-7-(4-(morpholinosulfonyl)phenyl)phthalazin-1-amine] | > 5.2 | –
1400 | 2200 | > 15000 | > 50 | 240 | Fc1cccc(COc2ccc(Nc3nncc4cc(-c5cccc(N6CCOCC6)c5)ccc34)cc2Cl)c1 [NEU-1037, N-(3-Chloro-4-((3-fluorobenzyl)oxy)phenyl)-6-(3-morpholinophenyl)phthalazin-1-amine] | – | –
